The values below come from patent US20240207308A1, “METHOD FOR CULTURING DENDRITIC CELLS” (NANOFAENTECH CO., LTD., priority 2021, published 2024).

What all share (format): cell-based, mouse
For assay [1], the system named is spleen dendritic cells and T cells. The assay is described as follows: ELISA of cytokines after 4 days co-culture of spleen dendritic cells and allogeneic T cells. The following applies: dendritic cells activated with LPS and poly (I:C), co-culture 4 days. On the procedure:
Since the main role of activated dendritic cells is to induce antigen-specific T-cell activation and proliferation according to the stimulatory properties, it was investigated whether self-activated dendrite cells after culturing and dendritic cells activated with LPS after culturing with addition of peptides can induce T cell proliferation by mixed lymphocyte reaction (MLR) test. The spleen dendritic cells isolated from C57B/L6 mice were self-activated for 24 hours, otherwise, when cultured with addition of peptides or fibronectin, the cells were treated with LPS and activated. Spleen T cells from Balb/c mice were isolated using a CD4^+/CD8^+ T cell isolation kit (Miltenyi Biotec, Bergisch-Gladbach, Germany) and MACS column (Miltenyi Biotec), followed by 10 μM CFSE staining (Molecular Probes; Thermo Fisher Scientific Inc., USA). The activated dendritic cells and CFSE-stained T cells were co-cultured at a ratio of 1:20 for 4 days, and the T cell proliferation level was measured as a percentage of cells with decreased CFSE. […] In FIG. 22, the amount of cytokines secreted after co-culture of spleen dendritic cells and T cells for 4 days was measured by ELISA method. […]
A general note: An ELISA detects its analyte on a solid surface through an enzyme-linked reagent.

The test system of the next assay is spleen dendritic cells. Briefly: Distribution / clustering of cultured spleen dendritic cells by confocal microscope (DIC). The following applies: 200 μg/mL added, dendritic cells 2×10^5/mL, cultured 6 hours. The procedure: Mouse spleen dendritic cells were obtained by adding EDTA-BSS (Balanced Salt Solution) buffer and collagenase solution (DMEM containing 100 units of collagenase type IV, medium containing low glucose) to spleens of female C57BL/6 mice and cutting it with surgical scissors, mixing the same with 6 mL of collagenase treatment solution, and incubating the mixture for 30 minutes. The separated whole spleen tissue was filtered using a 70 μm cell strainer (Falcon), followed by centrifugation at 1800 rpm for 5 minutes thus to separate the cells. Red blood cells were removed by adding red blood cell lysis buffer (Sigma-Aldrich) to the cells and washed twice with RPMI-1640 medium containing 10% fetal bovine serum (FBS). Dendritic cells were reacted with CD11c^+ antibody-bound microbeads and isolated using CD11c Microbeads Ultrapure ([…] Biotec, USA). In FIG. 1, primary dendritic cells isolated from the spleen were dispensed in a 48-well plate and cultured for 24 hours in a cell chamber maintained at 37° C. and 5% CO2, and the extent of clustering in which cells were distributed or gathered into single cells was evaluated. […] The number of single cells and intercellular clusters was measured using ImageJ software (NIH, Bethesda). * indicates statistical significance as P<0.05 or less compared with 0 h. […]

The subject of assay [2] is bone marrow-derived dendritic cells. The assay is described as follows: ELISA of TNF-α and IL-12p40 from LPS-stimulated bone marrow-derived dendritic cells. Particulars: BMDC, 24 hours, LPS 1 μg/mL. The procedure: Mouse bone marrow-derived dendritic cells were obtained by differentiation from mouse bone marrow precursor cells. The femur and tibia of female C57BL/6 mouse were removed, and bone marrow was isolated using 10 mL of EDTA:BSS (Balanced Salt Solution) buffer containing 2% FBS. Red blood cells were removed with erythrocyte lysis buffer (Sigma-Aldrich), washed with EDTA:BSS buffer, followed by filtering cells using a 70 μm cell strainer (Falcon). Cells at 3×10^6/mL were dispensed in a 6-well plate, and interleukin-4 (20 ng/ml) (JW Creagene, Korea) and GM-CSF (20 ng/ml) (JW Creagene) were added and cultured for 7 days to induce differentiation. Differentiated dendritic cells were reacted with microbeads bound with CD11c antibody (eBioscience), was separated using CD11c Microbeads Ultrapure (MACS, Milteni Biotec), and then cultured.
In FIG. 19, when fibronectin was administered by concentration while culturing bone marrow-derived dendritic cells for 24 hours, it could be seen that the secretion of TNF-α and IL-12p40 by LPS (1 μg/mL) was inhibited from a concentration of 100 μg/mL. * indicates statistical significance as P<0.05 or less compared to 0 μg/mL concentration.

In assay [3] the test system is spleen primary dendritic cells. The assay is described as follows: ELISA of TNF-α / IL-12p40 secreted by cultured spleen primary dendritic cells. The following applies: 24 hours. The procedure: In FIG. 12, spleen primary dendritic cells were dispensed at 1×10^6/mL and cultured for 24 hours, and then a concentration of TNF-α secreted from these cells in the culture medium was measured. As a result, it was confirmed that the secretion increased in a time-dependent manner. The concentration of TNF-α was measured at 450 nm using an ELISA kit (R&D systems) and a microplate analyzer (Synergy H1, Biotek). However, when dendritic cells were dispensed at 2×10^5/mL, CD86 expression was increased but TNF-α secretion was not increased (results not presented). * indicates statistical significance as P<0.05 or less compared with 3 h.
In FIG. 13, spleen primary dendritic cells were dispensed at 1×10^6/mL and cultured for 24 hours. […] Furthermore, when P4, P5 and P6 peptides were added at a concentration of 200 μg/mL, respectively, the secretion of TNF-α was not inhibited.
Therefore, it could be seen that fibronectin has a disadvantage of inhibiting the activation by stimulants although can maintain the inactivation of spleen dendritic cells. * indicates statistical significance as P<0.05 or less compared to -LPS.
In FIG. 27, an ELISA kit (R&D systems) was used to measure the concentration of TNF-α secreted into the culture medium when spleen primary dendritic cells were dispensed at 2×10^5/mL and cultured for 24 hours. The concentration was determined at 450 nm by a microplate analyzer (Synergy H1, Biotek).

Turning to fibronectin, in assay [1], the “secretion of IFN-γ, IL-6, TNF-α and IL-5” value was “extremely low”. The “cell aggregation (distribution of cells)” value in the assay with spleen dendritic cells is “significantly reduced”. Moreover, the “concentration from which the secretion of TNF-α and IL-12p40 by LPS was inhibited” value in assay [2] is at least 100 µg/mL. For the same substance, the “secretion of TNF-α and IL-12p40” value in assay [3] (1 μg/mL LPS) was “did not produce these cytokines”. The “secretion of TNF-α” value in assay [3] (cells 1×10^6/mL, no stimulant) is “hardly measured”. Moreover, the TNF-α secretion entry in assay [3] (cells 2×10^5/mL, without LPS) is on record as “hardly occurred”.
